Source: US20220289657A1, “COMPOSITION FOR PREVENTING OR TREATING BACTERIAL INFECTIOUS DISEASE COMPRISING 4-GINGEROL DERIVATIVE COMPOUND AS ACTIVE INGREDIENT” (KOREA UNIVERSITY RESEARCH AND BUSINESS FOUNDATION, SEJONG …, priority 2019, published 2022)
Read-outs that look alike come from different tables or passages of the source. Marks after values point to notes of the source that are not given here.

What was measured:
[1] = target: T1, RhlR (Pseudomonas aeruginosa, UniProt P54292); experiment: cell-based; conditions: for Relative RhlR activity Antagonism / Relative RhlR activity Agonism: Table 2; for Relative RhlR activity Agonism / activity at 100 µM: matches the 100 column of Table 3; for IC50: dose-response, FIG. 6A, different concentrations (0 to 100 μM); for Relative RhIR Activity (%) Agonism 100 / Relative RhIR Activity (%) Agonism 1000: Table 3; for Relative RhIR Activity (%) Agonism 1000: 1000 (μM); for remaining activity at 10 µM: read-out: Relative RhIR Activity (%) Antagonism 10, Table 3; for activity at 100 µM: read-out: Relative RhlR activity Agonism, Table 2
T1 construct: expressed in transfected cells; host or cells: E. coli sdiA variant co-transformed with pJN105R and pSC11 (RhlA::lacZ)

[2] = target: T2, LasR (Pseudomonas aeruginosa, UniProt P25084); experiment: QS reporter strain assay, LasR (lasI::lacZ); type: cell-based; conditions: 0.1 and 10 μM; FIG. 6C
T2 construct: expressed in transfected cells; host or cells: E. coli DH5a co-transformed with pJN105L and pSC11 (lasI::lacZ)
Method: For RhlR reporter strain analysis, the present invention used pJN105R (RhlR expression plasmid), anspSC11 (RhlA::lacZ fusion plasmid) and an sdiA variant co-transformed with the two plasmids. 1% of an overnight-cultured reporter strain (OD 595 nm=1.0) supplemented with 10 μg/mL gentamicin and 50 μg/mL ampicillin was cultured in a Luria-Bertani (LB) medium (Difco, Detroit, Mich., USA) with a positive control or a compound (0-1000 μM) and BHL (0-10 μM) (Sigma-Aldrich) at 37° C. for 2 hours. 0.4% arabinose (Sigma-Aldrich) was reacted with the resulting product at 37° C. for 1.5 hours. β-galactosidase activity was evaluated using a Tropix plus kit (Applied Biosystems, CA, USA), and OD 595 nm and luminescence were measured using a VICTOR x5 multimode plate reader (PerkinElmer, Waltham, Mass., USA). Relative RhlR activity was quantified by measuring luminescence at OD 595 nm. In addition, for LasR reporter strain analysis, the present invention used pJN105L (LasR expression plasmid) and pSC11 (lasI::lacZ fusion plasmid), E. coli DH5a co-transformed with the two plasmids, and OdDHL (Sigma-Aldrich).

[3] = system: Pseudomonas aeruginosa; experiment: Static biofilm formation assay (crystal violet); type: cell-based; conditions: for activity at 10 µM / activity at 100 µM: Pseudomonas aeruginosa, 24 h, Table 3; for activity at 10 µM / activity at 100 µM / biofilm formation compared with a control (in words): static; for activity at 10 µM: read-out: Relative biological activity (%) Biofilm formation 10; for activity at 100 µM: read-out: Relative biological activity (%) Biofilm formation 100; for Relative biological activity (%) Biofilm formation: Table 4, concentration not given; for biofilm formation compared with a control (in words): 100 μM
Method: (§1) Pseudomonas aeruginosa (P. aeruginosa) (OD 595 nm=1.0) was cultured overnight, and diluted in an AB medium (1:20; 300 mM NaCl, 50 mM MgSO4, 0.2% vitamin-free casamino acids, 10 mM potassium phosphate, 1 mM L-arginine, and 1% glucose, pH 7.5) together with a positive control or compound (0100 μM) in a borosilicate bottle. The resulting mixture was incubated without shaking at 37° C. for 24 hours, and to measure growth inhibition activity. OD 595 nm of the suspended culture was measured using a multimode plate reader. Biofilm cells attached to the bottle were washed twice with phosphate-buffered saline (PBS; 137 mM NaCl, 2.7 mM KCl, 10 mM Na2HPO4, and 2 mM KH2PO4, pH 7.2). Afterward, the remaining biofilm cells were stained with 0.1% crystal violet for 10 minutes, and to remove the unbound crystal violet, washed with deionized water. The crystal violet […] to the biofilm cells was eluted with 100% ethanol, and the OD of the eluted ethanol sample was measured at 545 nm using a multimode plate reader.

[4] = system: Pseudomonas aeruginosa; experiment: Dynamic biofilm formation assay (drip-flow reactor, CLSM); type: cell-based; conditions: 48 hours, 10 μM, smaller volume and thickness than control
Method: Glass slides were placed in a drip-flow reactor, and an AB medium containing 5% P. aeruginosa (OD 595 nm=1.0) was added along with a positive control or compound (0 to 10 μM) and the reactor was continuously operated using peristaltic pumps (Masterflex C/L tubing pumps, Cole-Parmer, Ill., USA) at 0.3 ml/min. After the above-described process was carried out at 37° C. for 48 hours, unattached biofilm cells were removed with PBS. The remaining biofilm cells were stained with DAPI (Sigma-Aldrich) for 10 minutes, and observed by confocal laser scanning microscopy (CLSM; Carl Zeiss LSM700, Jena, Germany). The CLSM image of the biofilm cells was obtained with a 20× objective lens (W NAchroplanX20/0.5W (DIC) M27) under blue fluorescence light (excitation wavelength: 350 nm, emission wavelength: 470 nm) using a Z-stack mode of the Zen 2011 program. The volume and thickness of the biofilm were measured using Comstat2 of the ImageJ program based on a CLSM image.

[5] = system: Pseudomonas aeruginosa; experiment: Bacterial growth under static condition (OD 595 nm of suspended culture); type: cell-based; conditions: for activity at 10 µM / activity at 100 µM: Pseudomonas aeruginosa, 24 h, Table 3; for activity at 10 µM: read-out: Relative biological activity (%) Bacterial growth 10; for activity at 100 µM: read-out: Relative biological activity (%) Bacterial growth 100
Method: as §1

[6] = system: P. aeruginosa; experiment: Rhamnolipid production assay; type: cell-based, Pseudomonas aeruginosa; conditions: for activity at 10 µM / activity at 100 µM: Pseudomonas aeruginosa, 24 h; for activity at 10 µM: read-out: Relative biological activity (%) Rhamnolipid production 10; for activity at 100 µM: read-out: Relative biological activity (%) Rhamnolipid production 100; for Relative biological activity (%) Rhamnolipid production: Table 4, concentration not given
Method: P. aeruginosa (OD 595 nm=1.0) cultured overnight was inoculated in an AB medium (1:100) with a positive control or compound (0100 μM), and incubated using a shaking culture for 24 hours at 37° C. The cell culture was centrifuged for 5 minutes at 4° C. and 12,000 g. Rhamnolipids were extracted twice by mixing 200 μL of a supernatant and 400 μL of 100% diethyl ether (JUNSEI, Tokyo, Japan). The supernatant was transferred to a new tube and evaporated. A dried sample was eluted with 20 μL of deionized water, and reacted with 180 μL of an Orcinal solution (0.19% Orcinal (Sigma-Aldrich) in 53% H2SO4). The reaction mixture was heated for 30 minutes at 80° C., and cooled for 15 minutes at room temperature. The amount of rhamnolipids was measured at OD 421 nm, and normalized in the cell culture solution at OD 595 nm using a multimode plate reader.

[7] = footnotes not given, 100 μM per Table 3, lower = stronger antagonism
[8] = Table 4, concentration not given
[9] = read-out: Relative RhIR Activity (%) Antagonism 100, Table 3, 100 (μM)
[10] = read-out: Relative RhlR activity Antagonism, Table 2, footnotes not given, 100 μM per Table 3, lower = stronger antagonism

T1 sequence (P54292 whole entry): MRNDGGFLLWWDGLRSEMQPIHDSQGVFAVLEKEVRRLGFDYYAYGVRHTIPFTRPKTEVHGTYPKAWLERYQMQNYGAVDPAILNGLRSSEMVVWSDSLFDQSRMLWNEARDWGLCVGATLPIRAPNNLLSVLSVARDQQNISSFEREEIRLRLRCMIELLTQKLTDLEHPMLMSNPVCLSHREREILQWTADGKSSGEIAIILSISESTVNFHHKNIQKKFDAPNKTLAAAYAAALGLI
T2 sequence (P25084 whole entry): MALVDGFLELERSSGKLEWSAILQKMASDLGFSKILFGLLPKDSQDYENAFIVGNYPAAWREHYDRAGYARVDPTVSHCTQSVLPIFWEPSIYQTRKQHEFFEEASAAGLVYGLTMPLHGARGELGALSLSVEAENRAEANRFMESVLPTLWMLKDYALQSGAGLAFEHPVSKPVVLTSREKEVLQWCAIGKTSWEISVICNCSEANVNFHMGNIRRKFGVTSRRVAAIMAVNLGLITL

Row | Compound | Relative RhlR activity Antagonism [1, 7] | Relative RhIR Activity (%) Agonism 100 ([1]; 100 (μM)) | Relative RhIR Activity (%) Agonism 1000 [1] | remaining activity at 10 µM [1] [%] | remaining activity at 100 µM [1, 9] [%] | activity at 100 µM ([1]; footnotes not given) [%] | remaining activity at 100 µM [1, 10] [%] | activity at 10 µM [3] [%] | activity at 100 µM [3] [%] | activity at 10 µM [5] [%] | activity at 100 µM [5] [%] | biofilm formation compared with a control (in words) [3] | activity at 10 µM ([6]; Table 3, 10 (μM)) [%] | activity at 100 µM ([6]; Table 3, 100 (μM)) [%] | also measured
1 | CCCC(O)CC(=O)CCc1ccc(O)c(OC)c1 (stereo not drawn) [Compound 12a, 5-Hydroxy-1-(4-hydroxy-3-methoxyphenyl)octan-3-one] | 69** % | – | – | – | – | – | – | – | – | – | – | – | – | – | Relative RhlR activity Agonism ([1]; footnotes not given): 4** %; IC50 [1]: 218 µM; LasR antagonistic activity [2]: no LasR antagonistic activity
2 | CCCC(=O)NC1CCCC1 [Compound 1d, N-cyclopentylbutyramide, reference compound] | 54** % | 4** % | 37% | 74 | 54 | 4 | 54 | 84 | 69 | 95 | 98 | – | – | – | Relative RhIR activity (%) Agonism [1, 8]: 4** %; IC50 [1]: 86 µM; Relative biological activity (%) Biofilm formation [3]: 81* %; biofilm appearance under flow condition vs control [4]: thinner and more dispersed biofilm; activity at 10 µM [6]: 58%; activity at 100 µM [6]: 45%; Relative biological activity (%) Rhamnolipid production [6]: 68* %
3 | CCCCCC(=O)/C=C/c1ccc(F)c(F)c1 [Compound 13a, (E)-1-(3,4-Difluorophenyl)oct-1-en-3-one] | – | 4** % | 3** % | 53 | 51 | 4 | 51 | 80 | 61 | 103 | 103 | significantly inhibited | 64 | 62 | –
4 | CCCCC(=O)C#Cc1ccc(F)c(F)c1 [Compound 31, 1-(3,4-Difluorophenyl)hept-1-yn-3-one] | – | 4** % | 6** % | 29 | 16 | 4 | 16 | 75 | 55 | 100 | 89 | significantly inhibited | 59 | 49 | effect on cell growth (in words) ([5]; 100 PM [sic] (100 μM)): slightly inhibited
5 | CCC[C@H](O)C#Cc1ccc(F)c(F)c1 [Compound 33c, (S)-1-(3,4-Difluorophenyl)hex-1-yn-3-ol] | – | 3** % | 5** % | 59 | 38 | 3 | 38 | 79 | 64 | 98 | 99 | – | 59 | 52 | –
6 | CCCC(O)CC(=O)/C=C/c1ccc(O)c(O)c1 (stereo not drawn) [Compound 11k, (E)-1-(3,4-Dihydroxyphenyl)-5-hydroxyoct-1-en-3-one] | – | 3** % | 5** % | 60 | 43 | 3 | 43 | 84 | 72 | 99 | 104 | – | 56 | 50 | –
7 | CCCCC[C@H](O)C#Cc1ccc(O)c(OC)c1 [Compound 23c, (S)-4-(3-Hydroxyoct-1-yn-1-yl)-2-methoxyphenol] | 34** % | – | – | – | – | 3 | 34 | – | – | – | – | – | – | – | Relative RhIR activity (%) Agonism [1, 8]: 3** %; Relative RhIR activity (%) Antagonism [1, 8]: 34** %; Relative biological activity (%) Biofilm formation [3]: 67* %; Relative biological activity (%) Bacterial growth [5, 8]: 104%; Relative biological activity (%) Rhamnolipid production [6]: 86%
8 | CCCC(O)CC(=O)/C=C/c1ccc(F)c(F)c1 (stereo not drawn) [Compound 11o, (E)-1-(3,4-Difluorophenyl)-5-hydroxyoct-1-en-3-one] | 20** % | 2** % | 5** % | 60 | 20 | 2 | 20 | 72 | 53 | 101 | 105 | significantly inhibited | 63 | 50 | Relative RhlR activity Agonism ([1]; footnotes not given): 2** %
